13 compounds from patent publication US9090549B2, “1,4-naphthoquinones derivatives and therapeutic use thereof” (CENTRE NATIONAL DE LA RECHERCHE SCIENTIFIQUE (C.N.R.S.), priority 2008, dated 2015) can be followed below.

For data set [1], the target named is P. falciparum glutathione reductase (PfGR) (Plasmodium falciparum, UniProt Q94655). The data set is described as follows: 1,4-Naphthoquinone reductase activity of P. falciparum glutathione reductase. Format: biochemical. The note with it: for substrate behaviour from catalytic efficiencies kcat/KM: with respect to menadione; for increased catalytic efficiency (kcat/KM) with respect to menadione: relative to menadione. The method, then:
The reduction assay mixture consisted of 100 mM potassium phosphate buffer pH 6.9, 200 mM KCl, 1 mM EDTA and 100 μM NADPH in a total volume of 1 mL. 1,4-naphthoquinone reductase activity was determined by recording the initial velocities in the presence of increasing naphthoquinone concentrations (0-300 μM). […] For the determination of KM and Vmax values, the steady-state rates were fitted by using nonlinear regression analysis software (Kaleidagraph) to the Michaelis-Menten equation. From these values, the turnover number kcat and the catalytic efficiency kcat/KM were calculated.

For data set [2], the system named is P. falciparum multidrug-resistant strain Dd2. Put plainly: Dd2 growth inhibition, 3H-hypoxanthine assay. The note with it: Plasmodium falciparum, DD2, 48 h exposure then 24 h hypoxanthine; read-out: IC50 against Dd2. Format: cell-based, Plasmodium falciparum. The method, then: The IC50 was tested by standard in vitro antiproliferation assays (Desjardins et al, 1979 Antimicrob. Agents Chemother 1979, 16, 710-718). Infected erythrocytes in ring stage (0.5% parasitemia, 2.5% hematocrit) in 96-well plates were exposed to the compounds for 48 h and then to radioactive hypoxanthine for 24 h. The amount of radioactivity in precipitable material served as an index of cell proliferation.

The next data set relates to Pf-GHA. Put plainly: Pf-GHA growth inhibition, colorimetric NBT-based lactate dehydrogenase assay. Format: cell-based. The note with it: Plasmodium falciparum; 72 h incubation; read-out: IC50 against Pf-GHA. How it is done:
The IC50 values against Pf-GHA and MRC-5 were determined by using the less sensitive colorimetric NBT-based lactate dehydrogenase assay (Makler et al, Am. J. Trop. Med. Hyg. 1993, 48 (6), 739-741) based on redox-reactions.
In Vitro Antiparasitic Bioassays. The strain is maintained in RPMI-1640 medium supplemented with 0.37 mM hypoxanthine, 25 mM HEPES, 25 mM NaHCO3, and 10% O^+ human serum together with 2-4% washed human O^+ erythrocytes. All cultures and assays are conducted under an atmosphere of 4% CO2, 3% O2 and 93% N2. Assays are performed in 96-well microtiter plates, each well containing 10 μL of the watery compound dilutions together with 190 μL of the malaria parasite inoculum (1% parasitaemia, 2% HCT). After 72 h incubation, plates are frozen and stored at −20° C. After thawing, 20 μL of each well is transferred into another plate together with 100 μL Malstat reagent and 20 μL of 1/1 mixture of PES (phenazine ethosulfate, 0.1 mg/mL) and NBT (Nitro Blue Tetrazolium Grade III, 2 mg/mL). Change in colour is measured spectrophotometrically at 655 nm. The results are expressed as % reduction in parasitaemia compared to control wells. Compounds are treated at 5 concentrations (64-16-4-1 and 0.25 μM or μg/mL).

The test system of a further data set is P. berghei ANKA. Put plainly: In vivo 4-day suppressive test in P. berghei-infected mice. Set-up: species or system Plasmodium berghei. The note with it: for activity on 4-day treatment / reduction in parasitaemia: intraperitoneal; for activity on 4-day treatment: P. berghei-infected mice; for reduction in parasitaemia: daily dose of 30 mg/kg. How it is done: The in vivo tests in the mouse model were done according to a standard protocol (Peters et al Handbook of Animal Models of Infection; Academic Press, London, 1999; pp. 756-771). […] […] For administration, compounds were freshly prepared in 10% DMSO in sterile phosphate-buffered saline the day of use. Two hours post-infection mice received the first treatment by the intraperitoneal route. Mice were further treated on days +1-3. Blood films from tail blood were prepared on day +4, and parasitaemia was determined by microscopic examination of Giemsa-stained blood films. […] […] Mice were treated and levels of parasitemia determined as described.

The target of a further data set is methemoglobin(Fe3+) (Homo sapiens, UniProt P68871+P69905). Put plainly: Redox-cycling of methemoglobin(Fe3+) into oxyhemoglobin(Fe2+) with NADPH/GR system. Format: biochemical. The source says:
Since FPIX(Fe^2+) is an inhibitor of hematin polymerization, compounds displaying the ability to reduce FPIX(Fe^3+) into FPIX(Fe^2+) might synergistically contribute with GR inhibition to increased oxidative stress in infected-red blood cells. To evaluate the redox-cycling activity of FPIX(Fe^3+) into FPIX(Fe^2+) we set up an assay using the naphthoquinone, the glutathione reductase/NADPH-based system to regenerate the dihydronaphthoquinone continuously and methemoglobin(Fe^3+) (MetHb). The UV-spectrum of MetHb between 300 nm and 700 nm is characterized by a maximal absorbance at 405 nm and a broad band centered at around 630 nm. […] We used 20 μM methylene blue as positive control of this redox-cycling activity.
In an Eppendorf tube containing 6.4 mg MetHb dissolved in 885 μL GR buffer (47 mM potassium phosphate buffer pH 6.9, 200 mM KCl, 100 mM EDTA), 10 μL 20 mM P_TM25 dissolved in DMSO and 100 μL NADPH dissolved in GR buffer were added. The reaction was started by the addition of 5 μL human GR and then incubated at 37° C. In a 1 mL cuvette 20 μL of the reaction mixture was diluted with 980 μL GR buffer and a UV-spectra between 300 nm and 700 nm was done after 5 min, 10 min, 20 min and 30 min incubation time. The final concentrations in the reaction mixture were 100 μM MetHb, 200 μM P_TM25, 400 μM NADPH and […] hGR, final DMSO concentration 1%.
Spectra were measured after 5 min (blue), 10 min (black), 20 min (green) and 30 min (red).

The target in data set [3] is T1, human glutathione reductase (hGR) (Homo sapiens, UniProt P00390).
T1 sequence (P00390 44-522): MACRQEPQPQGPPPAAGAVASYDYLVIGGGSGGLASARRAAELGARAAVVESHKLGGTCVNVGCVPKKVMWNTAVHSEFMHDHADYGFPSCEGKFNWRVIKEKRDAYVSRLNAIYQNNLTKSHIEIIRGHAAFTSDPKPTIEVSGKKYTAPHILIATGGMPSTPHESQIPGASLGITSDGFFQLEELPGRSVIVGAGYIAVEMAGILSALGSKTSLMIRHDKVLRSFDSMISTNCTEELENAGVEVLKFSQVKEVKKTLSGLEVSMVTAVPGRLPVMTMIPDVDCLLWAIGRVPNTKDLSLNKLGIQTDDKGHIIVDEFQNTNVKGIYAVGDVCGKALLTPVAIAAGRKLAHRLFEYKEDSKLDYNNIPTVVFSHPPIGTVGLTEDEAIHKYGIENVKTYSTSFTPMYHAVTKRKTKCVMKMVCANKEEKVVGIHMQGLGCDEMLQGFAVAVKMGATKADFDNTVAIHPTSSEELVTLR
Put plainly: Inhibition of human glutathione reductase under steady-state conditions. The note with it: pH 6.9, 25° C., 1 mM GSSG, 100 μM NADPH. Format: biochemical.

Chain of methemoglobin(Fe3+) (P69905 2-142 limits assumed): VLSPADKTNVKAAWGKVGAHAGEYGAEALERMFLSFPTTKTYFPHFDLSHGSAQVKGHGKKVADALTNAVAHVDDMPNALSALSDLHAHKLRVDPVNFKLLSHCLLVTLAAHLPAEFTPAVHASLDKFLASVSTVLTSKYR
Chain of methemoglobin(Fe3+) (P68871 2-147 limits assumed): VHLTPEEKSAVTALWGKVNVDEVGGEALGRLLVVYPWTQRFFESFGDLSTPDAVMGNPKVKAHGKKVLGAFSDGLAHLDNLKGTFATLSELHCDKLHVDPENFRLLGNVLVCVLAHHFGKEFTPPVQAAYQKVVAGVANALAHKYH
Chain of P. falciparum glutathione reductase (PfGR) (Q94655 2-500 limits assumed): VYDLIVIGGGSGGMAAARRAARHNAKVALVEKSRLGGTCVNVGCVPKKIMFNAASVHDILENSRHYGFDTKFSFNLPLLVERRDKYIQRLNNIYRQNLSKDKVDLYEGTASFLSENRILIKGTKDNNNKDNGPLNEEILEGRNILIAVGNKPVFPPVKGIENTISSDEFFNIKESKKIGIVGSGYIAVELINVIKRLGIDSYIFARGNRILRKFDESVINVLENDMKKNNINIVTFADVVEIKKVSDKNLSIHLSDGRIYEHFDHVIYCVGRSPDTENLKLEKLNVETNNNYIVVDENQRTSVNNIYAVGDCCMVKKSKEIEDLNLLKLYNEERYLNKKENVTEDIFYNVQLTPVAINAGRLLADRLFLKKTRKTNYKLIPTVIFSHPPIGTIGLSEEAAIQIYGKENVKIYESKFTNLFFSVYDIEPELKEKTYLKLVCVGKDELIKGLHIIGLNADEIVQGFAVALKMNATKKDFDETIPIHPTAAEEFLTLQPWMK

In turn, `COc1ccc(C(=O)C2=C(C)C(=O)C3C=CC=CC3C2=O)cc1` (centres unmarked) [P_TM34, 2-Methyl-3-(4-methoxy-benzoyl)-4a,8a-dihydro-[1,4]naphthoquinone] gave a melting point of 150 to 151 °C. In addition, the “substrate behaviour from catalytic efficiencies kcat/KM” value (shortened to “substrate behaviour”) in data set [1] is given as “very effective substrates”.
Take `CC1=C(Cc2ccc(Br)cc2)C(=O)C2C=CC=CC2C1=O` (centres unmarked) [P_TM24, 2-Methyl-3-(4-bromo-benzyl)-4a,8a-dihydro-[1,4]naphthoquinone]: the melting point fell in the range of 121 to 122 °C. In addition, the IC50 in data set [2] is under 100 nM. Besides, the IC50 in the data set with Pf-GHA is under 5000 nM. This compound also gave a decrease in parasitaemia in the data set with P. berghei ANKA (daily dose of 50 mg/kg ip, 4-day test, mice) of 35.6%. Moreover, the “activity on 4-day treatment” value with P. berghei ANKA was “significant activity”.
Take `CC1=C(C(=O)c2ccc(Br)cc2)C(=O)C2C=CC=CC2C1=O` (centres unmarked) [P_TM25, 2-Methyl-3-(4-bromo-benzoyl)-4a,8a-dihydro-[1,4]naphthoquinone]: the melting point fell in the range of 170 to 171 °C. For the same compound, the “substrate behaviour” value in data set [1] is recorded as “very effective substrates”. Also, at methemoglobin(Fe3+) (100 μM MetHb, NADPH, human GR), the “concentration at which the shift of maximal absorbance of MetHb from 405 to 410 nm starts being visible” value is 50 µM. In addition, the “redox-cycling of methemoglobin in the presence of GR” value at methemoglobin(Fe3+) (200 μM P_TM25, 100 μM MetHb, 400 μM NADPH, human GR, 37° C.) is “can undergo redox-cycling of methemoglobin”.
Regarding `CC1=C(Cc2ccc(O)cc2)C(=O)C2C=CC=CC2C1=O` (centres unmarked) [P_TM36, 2-Methyl-3-(4-hydroxy-benzyl)-4a,8a-dihydro-[1,4]naphthoquinone], the melting point was 165 to 166 °C. In addition, in data set [2], the half-inhibitory concentration (IC50) was under 100 nM. In the data set on Pf-GHA, the half-maximal inhibitory concentration (IC50) was under 5000 nM. Also, the “activity on 4-day treatment” value in the data set on P. berghei ANKA was “significant activity”.
On to `CC1=C(Cc2ccc([N+](=O)[O-])cc2)C(=O)C2C=CC=CC2C1=O` (centres unmarked) [P_TM37, 2-Methyl-3-(4-nitro-benzyl)-4a,8a-dihydro-[1,4]naphthoquinone], for which the melting point fell in the range of 156 to 157 °C. For the same compound, in the data set on P. berghei ANKA (4-day test, mice), the reduction in parasitaemia was 42.4%. Moreover, the “activity on 4-day treatment” value in the data set with P. berghei ANKA is recorded as “significant activity”.
As for `CC1=C(CC2=CC(=O)C=CC2=O)C(=O)C2C=CC=CC2C1=O` (centres unmarked) [P_TM63, 2-(3,6-Dioxo-cyclohexa-1,4-dienylmethyl)-3-methyl-4a,8a-dihydro-[1,4]naphthoquinone], in data set [1], the “increased catalytic efficiency (kcat/KM) with respect to menadione” value (“increased catalytic efficiency (kcat/KM)” for short) worked out at 17.2 fold and the “substrate behaviour” value is “very effective substrates”.
Turning to `CC1=C(C(=O)c2ccc(O)cc2)C(=O)C2C=CC=CC2C1=O` (centres unmarked) [P_TM39, 2-Methyl-3-(4-hydroxy-benzoyl)-4a,8a-dihydro-[1,4]naphthoquinone], the melting point was 184 to 185 °C. The “substrate behaviour” value in data set [1] was “very effective substrates”. Also, the concentration for half-maximal inhibition (IC50) in the data set on Pf-GHA was under 5000 nM.
In turn, `CC1=C(Cc2ccc(C(F)(F)F)cc2)C(=O)c2ccccc2C1=O` [P_TM29] came in with a half-inhibitory concentration (IC50) in data set [3] of 1600 nM.
For the compound `CC1=C(Cc2ccc(C(C)(C)C)cc2)C(=O)C2C=CC=CC2C1=O` (centres unmarked) [P_TM43, 2-Methyl-3-(4-tert-butyl-benzyl)-4a,8a-dihydro-[1,4]naphthoquinone], the melting point was 60 to 61 °C. In data set [2], the half-maximal inhibitory concentration (IC50) was under 100 nM. The compound also had a reduction in parasitaemia in the data set with P. berghei ANKA (4-day test, mice) of 43.4%. The “activity on 4-day treatment” value with P. berghei ANKA is listed as “significant activity”.
For the compound “2-Methyl-3-(fluoro-benzoyl)-4a,8a-dihydro-[1,4]naphthoquinone [P_TM27]”, in data set [1] (pH 6.9, 100 μM NADPH, 1% DMSO), the Km is 56.1 µM. For the same compound, the “substrate behaviour” value in data set [1] is listed as “very effective substrates”.
With `CN(C)c1ccc2nc3ccc(=[N+](C)C)cc-3sc2c1` [Methylene Blue, reference compound], the “shift of λmax of MetHb” value on methemoglobin(Fe3+) (20 μM Methylene Blue, same conditions) was “clear shift”.
The compound `CC1=C(C(=O)c2ccc([N+](=O)[O-])cc2)C(=O)C2C=CC=CC2C1=O` (centres unmarked) [P_TM40, 2-Methyl-3-(4-nitro-benzoyl)-4a,8a-dihydro-[1,4]naphthoquinone] came in with a melting point of 170 to 171 °C. In data set [1], the “increased catalytic efficiency (kcat/KM)” value amounted to 3.9 fold and the “substrate behaviour” value is “very effective substrates”. Moreover, in data set [2], the concentration for half-maximal inhibition (IC50) worked out at 103 nM.
In turn, `CC1=C(C(=O)c2ccc(Br)cc2)C(=O)C2C(O)=CC=CC2C1=O` (centres unmarked) [P_TM47, 3-(4-bromo-benzoyl)-5-hydroxy-2-methyl 4a,8a-dihydro-[1,4]naphthoquinone] had a melting point of 161 to 162 °C. Further, in data set [1], the “increased catalytic efficiency (kcat/KM)” value is 6.3 fold and the “substrate behaviour” value is reported as “very effective substrates”.

A word on the melting point: it is the temperature of the solid-liquid transition. As a reminder, the IC50 is the midpoint of a concentration-inhibition curve. A word on the Km: it is the substrate concentration at which the rate is half of its maximum.
